Reference: US6054437A, “Method for inducing death of neoplastic cells using piperazine derivatives” (Hitachi Chemical Research Center, Inc., priority 1997, dated 2000)
Entries after “also recorded” stand apart in the source; their conditions may differ. Counter-ions that a name gives are not always drawn. Like-named read-outs stand apart in the source and are kept apart here.

Legend:
[1] = Acute toxicity test, i.v. (LD50); conditions: rat, in vivo, iv, rats
Description: This non-toxicity of the compounds makes it possible to administer the compounds to patients daily for a long period of time without interruption, without significant side effects, until the cancer tumors are suppressed. The non-toxicity, the apoptotic effects and the reversal of multidrug resistance of the compounds will change the procedures of conventional chemotherapy completely.

[2] = tested on: breast cancer cell lines; experiment: Cancer cell death assay (LDH release), breast lines; assay type: cell-based, human; conditions: compound alone, 24 hours
Protocol: (§1) 1. Cancer Cell Death Assay
(§2) Cell death was measured quantitatively by the release of a marker intracellular enzyme, lactate dehydrogenase (LDH), from damaged or killed cells. LDH released into the extracellular fluid, was measured 24 hours after drug exposure to cancer cells and the enzyme activity was determined by the method of Decker et al. (J. Immunolog Methods 15:61-99, 1988).
(§3) All cell lines used in the present study were obtained from the American Type Tissue Culture Laboratory and cultured according to their specifications. All were human cancer lines unless otherwise noted. The following cell lines and their tissue of origin used in our studies were:
(§4) The first assays performed measured the anti-neoplastic activity of NCO-700, alone, in cell death assays of a wide variety of human cancer cells. The results of these experiments are shown in FIGS. 1-6, where a dose-response curve of NCO-700 versus % LDH release is plotted, with higher values of LDH released indicating greater anti-neoplastic activity (apoptosis).
(§5) In FIG. 8, a dose-response curve is shown of the effect of TOP-008 on the killing of breast, prostate and colon cell lines.

[3] = tested on: melanoma cell lines B16F10 and SK-Mel-2; experiment: Cancer cell death assay (LDH release), melanoma lines; assay type: cell-based, mouse (B16F10); human (SK-Mel-2); conditions: compound alone, 24 hours
Protocol: FIG. 2 is a graph showing the relationship between LDH released and the concentration of NCO-700 in cancer cell death assays of melanoma cell lines B16F10 (mouse line) and SK-Mel-2 (human line).
as §1, §2, §3, §4

[4] = tested on: colon cancer cell lines; experiment: Cancer cell death assay (LDH release), colon lines; assay type: cell-based, human; conditions: compound alone, 24 hours
Protocol: as §1, §2, §3, §4, §5

[5] = tested on: HEP-129 (liver); experiment: Cancer cell death assay (LDH release), liver line; assay type: cell-based, human; conditions: compound alone, 24 hours
Protocol: FIG. 4 is a graph showing the relationship between LDH released and the concentration of NCO-700 in cancer cell death assays of human cancer cell lines MCF-7 (breast), HL-60 (leukemia), and HEP-129 (liver).
as §1, §2, §3, §4

[6] = tested on: DU-145 (prostate); experiment: Cancer cell death assay, NCO-700 versus Calpain inhibitor 1; assay type: cell-based, human
Protocol: as §2
Based on Experiment 1 above, the anti-cancer activity of NCO-700 and Calpain inhibitor 1 (N-acetyl-leu-leu-norleucinal, C20 H37 N3 O4) was tested in cancer cell death assays of human cancer cell line DU-145.

[7] = tested on: KB-3 (sensitive cells); experiment: Drug accumulation assay ([3H]-vinblastine), sensitive cells; assay type: cell-based, human; conditions: KB-3, 20 μM NCO-700 + vinblastine
Protocol: 1. Drug Accumulation Assays
where the effect of NCO-700 on the uptake of radioactive (^3 H)-vinblastine, an anticancer drug, is measured in cultured cancer cells, that are both drug-resistant and drug-sensitive (Reference 3).
(§6) In the first two in vitro assays, the drug accumulation assay and the cell survival assay, a human pharyngeal carcinoma cell line (KB-V-1) which is highly resistant to anticancer drugs was used. This cell line was developed by Drs. Ira Pastan and Michael Gottesman of the National Cancer Institute, by step-wise selection in colchicine of drug-resistant cells. The control cancer cell line (KB-3), from which the resistant cell lines were derived, is sensitive to anticancer drugs. The resistant KB-V-1 cell line is approximately 275 times more resistant to vinblastine than the sensitive KB-3 line and has a greatly amplified mdr gene which generates the observed resistance.
Measurement of [^3 H]-vinblastine accumulation was performed by the methods developed in the laboratory of Drs. Gottesman and Pastan (Fojo et al., Cancer Res. 45:3002-3007, 1985). […] After an additional 30 min, the medium was removed, the plates were washed three times in ice-cold phosphate-buffered saline, the cells were detached with trypsin, and radioactivity determined by scintillation counting.

[8] = tested on: KB-3 (sensitive); experiment: Cell survival assay with vinblastine, sensitive cells; assay type: cell-based, human
Protocol: (§7) where the effect of NCO-700 to enhance cancer cell killing by vinblastine was measured.
as §6
(§8) The cell survival experiments shown above were performed by plating KB-3 (sensitive) and KB-V-1 (resistant) cells in 32 mm well plastic dishes at a cell density of 300-500 cells per well. Vinblastine and NCO-700 were added 16 hours after the initial cell plating. After 10 days of incubation at 37°, cell colonies were stained and counted.

[9] = tested on: KB-V-1 (resistant); experiment: Cell survival assay with vinblastine, resistant cells; assay type: cell-based, human; conditions: for IC50: Homo sapiens, KB-V1
Protocol: as §7, §6, §8

[10] = tested on: KB-CH 8-5; experiment: In vivo model of tumorigenicity, nude mice carrying resistant human tumor
Protocol: 3. In Vivo Model of Tumorigenicity
where the effect of NCO-700 in the ability of adriamycin to reduce tumor mass in drug-resistant neoplasms was measured.
For the in vivo model of tumorigenicity, cell lines developed by Pastan and Gottesman which can grow as solid tumors in nude mice were utilized. This cell line was designated KB-CH 8-5, and was a nonreverting resistant cell line. All of these cancer cell lines were generously provided by Dr. Gottesman.
In the next series of experiments, an in vivo model of tumorigenicity was utilized to examine the effect of NCO-700 on tumor mass. These experiments were performed with the cell line KB-CH-8/5, which is a cell line developed by Drs. Gottesman and Pastan, specifically for use in animals as the cells from solid tumors in vivo. Nude male mice, 5-6 weeks old and weighing between 25-30 g, were injected subcutaneously with 2-5×10^6 KB-CH-8/5 cells and treated for 14 days with 0.6 mg/kg adriamycin and with or without NCO-700 in doses ranging from 0-80 mg/kg NCO-700 per day. The data shown in FIG. 37 were obtained by weighing the well-encapsulated, excised tumor and recording the body weight of the mice.

With `CCOC(=O)[C@@H]1O[C@H]1C(=O)N[C@@H](CC(C)C)C(=O)N1CCN(Cc2ccc(OC)c(OC)c2OC)CC1` [NCO-700, Bis[ethyl (2R,3R)-3-[(S)-3-methyl-1-[4-(2,3,4-trimethoxyphenylmethyl)piperazin-1-ylcarbonyl]butylcarbamoyl]oxirane-2-carboxylate] Sulfate] the LD50 [1] was 317 mg/kg, the “anti-neoplastic activity (LDH release)” value [2] was “the cells that were responding to NCO-700 were estrogen receptor negative” and the “anti-neoplastic activity (LDH release)” value [3] was “all cells lines showed sensitivity to NCO-700”. For the same compound, the “anti-neoplastic activity (LDH release)” value [4] was “partly responsive”, the “anti-neoplastic activity (LDH release)” value [5] was “did not respond” and the “potency relative to Calpain inhibitor 1” value ([6]; DU-145, 100 μM) was roughly 10 fold. The “anti-cancer activity compared with Calpain inhibitor 1” value ([6]; DU-145, FIG. 33) was “clearly superior to the other inhibitor”, the vinblastine accumulation [7] was 3.17 ± 0.09 pmole vinblastine/mg protein and the IC50 ([8]; Homo sapiens, KB-3, + 25 μM NCO-700, read-out: vinblastine to kill 50% of cells) was 0.0016 µg/mL. The “enhancement of killing by vinblastine” value ([8]; sensitive KB-3 cells) was “slight enhancement of the killing of sensitive KB-3 cells”, the IC50 ([9]; KB-V-1, + 25 μM NCO-700, read-out: vinblastine to kill 50% of cells) was 0.148 µg/mL and the IC50 ([9]; KB-V-1, + 30 μM NCO-700, read-out: level of vinblastine needed to kill 50% of the tumor cells) was 0.16 µg/mL. For the same compound, the “enhancement of killing of resistant cells by vinblastine” value ([9]; drug-resistant cells, with vinblastine) was “enhanced killing of the drug-resistant cells; also recorded: dramatic effect; also recorded: highly significant increase in the killing of these cancer cells”, the “effect on tumor, alone” value ([10]; NCO-700 on its own) was “not significantly effective on its own” and the “decline of tumor mass” value ([10]; NCO-700 with adriamycin) was 60%. The “loss of body weight” value ([10]; nude mice carrying resistant human tumor) was “without any corresponding loss of body weight” and the “potentiation of the effect of adriamycin on tumor” value ([10]; with 0.6 mg/kg adriamycin, 14 days, NCO-700 0-80 mg/kg per day) was “significantly potentiated the effect of adriamycin, especially at an amount of 40 mg/kg or more”.
